Reference: ChEMBL document CHEMBL4507287, “Data for DCP probe MRL-650” (2021)

What was measured:
[1] = molecular target: STE20-like serine/threonine-protein kinase (Homo sapiens) (UniProt Q9H2G2); conditions: Compound concentration 1000.0 nM
[2] = molecular target: 5-hydroxytryptamine receptor 5A (Homo sapiens) (UniProt P47898); conditions: Compound concentration 10.0 uM
[3] = molecular target: Serine/threonine-protein kinase PLK2 (Homo sapiens) (UniProt Q9NYY3); conditions: Compound concentration 1000.0 nM
[4] = molecular target: Serine/threonine-protein kinase D1 (Homo sapiens) (UniProt Q15139); conditions: Compound concentration 1000.0 nM
[5] = molecular target: Alpha-2C adrenergic receptor (Homo sapiens) (UniProt P18825); conditions: Compound concentration 10.0 uM
[6] = molecular target: MAP kinase-activated protein kinase 5 (Homo sapiens) (UniProt Q8IW41); conditions: Compound concentration 1000.0 nM
Chain of MAP kinase-activated protein kinase 5 (Homo sapiens) (Q8IW41 whole entry): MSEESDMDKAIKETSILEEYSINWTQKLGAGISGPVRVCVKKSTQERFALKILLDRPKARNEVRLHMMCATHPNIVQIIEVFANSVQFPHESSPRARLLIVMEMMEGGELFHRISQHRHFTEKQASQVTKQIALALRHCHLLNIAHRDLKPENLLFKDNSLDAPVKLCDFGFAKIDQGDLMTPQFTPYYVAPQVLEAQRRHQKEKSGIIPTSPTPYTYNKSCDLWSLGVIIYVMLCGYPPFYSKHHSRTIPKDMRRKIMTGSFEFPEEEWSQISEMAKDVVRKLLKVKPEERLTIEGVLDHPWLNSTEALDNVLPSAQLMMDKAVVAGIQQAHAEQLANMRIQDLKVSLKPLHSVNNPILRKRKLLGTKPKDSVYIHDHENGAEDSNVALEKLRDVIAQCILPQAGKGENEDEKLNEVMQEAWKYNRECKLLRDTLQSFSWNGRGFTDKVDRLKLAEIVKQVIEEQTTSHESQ

[7] = molecular target: Atypical kinase COQ8A, mitochondrial (Homo sapiens) (UniProt Q8NI60); conditions: Compound concentration 1000.0 nM
[8] = molecular target: Ribosomal protein S6 kinase alpha-3 (Homo sapiens) (UniProt P51812); conditions: Compound concentration 1000.0 nM
[9] = molecular target: D(4) dopamine receptor (Homo sapiens) (UniProt P21917); conditions: Compound concentration 10.0 uM
[10] = tested on: Hepatocyte growth factor receptor (Homo sapiens), P08581 [Y1235D]; conditions: Compound concentration 1000.0 nM
[11] = tested on: Receptor-type tyrosine-protein kinase FLT3 (Homo sapiens), P36888 [D835V]; conditions: Compound concentration 1000.0 nM
[12] = molecular target: Tyrosine-protein kinase Fer (Homo sapiens) (UniProt P16591); conditions: Compound concentration 1000.0 nM
[13] = molecular target: Serine/threonine-protein kinase NLK (Homo sapiens) (UniProt Q9UBE8); conditions: Compound concentration 1000.0 nM
[14] = molecular target: STE20/SPS1-related proline-alanine-rich protein kinase (Homo sapiens) (UniProt Q9UEW8); conditions: Compound concentration 1000.0 nM
[15] = molecular target: Ephrin type-A receptor 1 (Homo sapiens) (UniProt P21709); conditions: Compound concentration 1000.0 nM
[16] = molecular target: Citron Rho-interacting kinase (Homo sapiens) (UniProt O14578); conditions: Compound concentration 1000.0 nM
Chain of Citron Rho-interacting kinase (Homo sapiens) (O14578 whole entry): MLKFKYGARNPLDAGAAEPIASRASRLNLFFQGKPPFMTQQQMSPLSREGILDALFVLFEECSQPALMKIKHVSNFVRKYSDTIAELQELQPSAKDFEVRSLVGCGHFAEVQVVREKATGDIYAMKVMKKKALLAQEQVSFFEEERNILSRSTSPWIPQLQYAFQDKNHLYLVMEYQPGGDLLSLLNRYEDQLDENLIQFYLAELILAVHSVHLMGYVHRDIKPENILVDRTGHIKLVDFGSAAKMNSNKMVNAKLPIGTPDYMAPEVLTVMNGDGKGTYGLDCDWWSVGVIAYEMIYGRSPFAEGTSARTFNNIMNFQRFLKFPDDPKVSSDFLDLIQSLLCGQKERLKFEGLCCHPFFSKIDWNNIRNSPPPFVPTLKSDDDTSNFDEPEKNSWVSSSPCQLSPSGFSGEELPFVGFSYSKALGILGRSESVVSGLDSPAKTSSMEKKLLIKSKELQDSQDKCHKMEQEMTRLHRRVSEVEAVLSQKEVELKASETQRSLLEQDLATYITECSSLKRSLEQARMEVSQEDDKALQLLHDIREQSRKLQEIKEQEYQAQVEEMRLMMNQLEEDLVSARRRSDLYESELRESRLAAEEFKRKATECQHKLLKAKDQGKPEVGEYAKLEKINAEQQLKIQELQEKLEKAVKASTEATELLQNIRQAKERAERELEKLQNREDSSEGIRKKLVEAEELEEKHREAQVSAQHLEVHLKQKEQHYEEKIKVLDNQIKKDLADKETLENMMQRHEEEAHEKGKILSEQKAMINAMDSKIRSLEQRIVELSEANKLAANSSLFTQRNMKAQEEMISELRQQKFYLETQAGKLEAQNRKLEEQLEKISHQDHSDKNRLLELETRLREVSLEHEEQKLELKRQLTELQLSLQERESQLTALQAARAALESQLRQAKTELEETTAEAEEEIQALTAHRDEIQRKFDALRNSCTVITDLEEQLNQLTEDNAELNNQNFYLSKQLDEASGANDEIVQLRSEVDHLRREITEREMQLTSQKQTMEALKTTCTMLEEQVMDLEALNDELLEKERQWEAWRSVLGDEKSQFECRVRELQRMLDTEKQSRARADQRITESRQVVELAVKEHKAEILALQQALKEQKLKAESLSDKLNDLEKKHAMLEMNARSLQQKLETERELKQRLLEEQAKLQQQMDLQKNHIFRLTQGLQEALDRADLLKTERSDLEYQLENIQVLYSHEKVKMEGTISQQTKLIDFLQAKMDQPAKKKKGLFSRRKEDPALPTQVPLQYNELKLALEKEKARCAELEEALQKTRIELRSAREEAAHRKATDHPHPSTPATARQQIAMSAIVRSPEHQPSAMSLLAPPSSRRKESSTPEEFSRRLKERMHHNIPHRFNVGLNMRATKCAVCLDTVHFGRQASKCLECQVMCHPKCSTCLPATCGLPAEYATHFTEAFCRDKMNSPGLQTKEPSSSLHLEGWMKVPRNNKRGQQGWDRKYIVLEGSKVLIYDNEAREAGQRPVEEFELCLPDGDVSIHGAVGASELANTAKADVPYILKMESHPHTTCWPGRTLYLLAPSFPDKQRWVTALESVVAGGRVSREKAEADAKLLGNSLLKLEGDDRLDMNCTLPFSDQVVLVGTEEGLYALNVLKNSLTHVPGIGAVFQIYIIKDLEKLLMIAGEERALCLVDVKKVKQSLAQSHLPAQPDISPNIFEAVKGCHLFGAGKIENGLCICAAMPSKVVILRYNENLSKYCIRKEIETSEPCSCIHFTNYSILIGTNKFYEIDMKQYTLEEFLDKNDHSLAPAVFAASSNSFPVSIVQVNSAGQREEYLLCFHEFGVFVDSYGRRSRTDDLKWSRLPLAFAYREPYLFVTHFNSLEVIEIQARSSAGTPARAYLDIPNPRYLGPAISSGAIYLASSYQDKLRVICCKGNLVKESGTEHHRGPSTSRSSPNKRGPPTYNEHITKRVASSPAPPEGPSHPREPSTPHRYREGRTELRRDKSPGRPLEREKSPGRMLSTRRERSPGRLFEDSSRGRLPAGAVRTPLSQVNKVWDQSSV

[17] = molecular target: Phosphatidylinositol 4-phosphate 5-kinase type-1 alpha (Homo sapiens) (UniProt Q99755); conditions: Compound concentration 1000.0 nM
[18] = molecular target: Cyclin-dependent kinase 3 (Homo sapiens) (UniProt Q00526); conditions: Compound concentration 1000.0 nM
Chain of Cyclin-dependent kinase 3 (Homo sapiens) (Q00526 whole entry, looked up): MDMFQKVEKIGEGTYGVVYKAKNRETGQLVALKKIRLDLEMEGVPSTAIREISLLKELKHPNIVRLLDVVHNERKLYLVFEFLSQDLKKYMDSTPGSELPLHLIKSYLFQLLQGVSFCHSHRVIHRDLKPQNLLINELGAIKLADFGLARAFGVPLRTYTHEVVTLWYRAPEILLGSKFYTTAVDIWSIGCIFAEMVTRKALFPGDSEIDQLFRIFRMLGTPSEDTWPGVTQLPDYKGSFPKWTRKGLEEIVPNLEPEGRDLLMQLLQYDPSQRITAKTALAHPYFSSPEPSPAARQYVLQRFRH

[19] = molecular target: Proto-oncogene tyrosine-protein kinase Src (Homo sapiens) (UniProt P12931); conditions: Compound concentration 1000.0 nM
[20] = molecular target: Tyrosine-protein kinase JAK3 (Homo sapiens) (UniProt P52333); conditions: Compound concentration 1000.0 nM
[21] = molecular target: Tyrosine-protein kinase Lck (Homo sapiens) (UniProt P06239); conditions: Compound concentration 1000.0 nM
[22] = molecular target: Activin receptor type-1-like (Homo sapiens) (UniProt P37023); conditions: Compound concentration 1000.0 nM
[23] = molecular target: Serine/threonine-protein kinase 17A (Homo sapiens) (UniProt Q9UEE5); conditions: Compound concentration 1000.0 nM
[24] = molecular target: Glycogen synthase kinase-3 alpha (Homo sapiens) (UniProt P49840); conditions: Compound concentration 1000.0 nM
[25] = molecular target: Calcium/calmodulin-dependent protein kinase kinase 2 (Homo sapiens) (UniProt Q96RR4); conditions: Compound concentration 1000.0 nM
Chain of Calcium/calmodulin-dependent protein kinase kinase 2 (Homo sapiens) (Q96RR4 2-588 limits assumed): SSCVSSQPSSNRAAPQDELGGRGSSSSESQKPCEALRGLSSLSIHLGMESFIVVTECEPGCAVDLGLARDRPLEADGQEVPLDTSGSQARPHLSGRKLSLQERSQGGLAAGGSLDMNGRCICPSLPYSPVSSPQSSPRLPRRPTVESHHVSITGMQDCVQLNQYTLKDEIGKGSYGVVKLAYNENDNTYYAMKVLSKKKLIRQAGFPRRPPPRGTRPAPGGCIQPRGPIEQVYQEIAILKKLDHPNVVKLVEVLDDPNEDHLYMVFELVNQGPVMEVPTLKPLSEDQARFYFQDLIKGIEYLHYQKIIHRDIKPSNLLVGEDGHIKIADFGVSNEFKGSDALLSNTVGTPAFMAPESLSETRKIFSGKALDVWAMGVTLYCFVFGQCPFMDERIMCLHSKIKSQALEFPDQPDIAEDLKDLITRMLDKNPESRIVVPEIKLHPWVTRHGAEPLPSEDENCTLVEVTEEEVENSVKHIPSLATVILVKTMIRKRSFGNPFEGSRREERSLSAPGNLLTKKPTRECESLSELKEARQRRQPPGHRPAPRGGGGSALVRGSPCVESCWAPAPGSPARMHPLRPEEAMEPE

[26] = molecular target: Serine/threonine-protein kinase 33 (Homo sapiens) (UniProt Q9BYT3); conditions: Compound concentration 1000.0 nM
[27] = molecular target: Alpha-2A adrenergic receptor (Homo sapiens) (UniProt P08913); conditions: Compound concentration 10.0 uM
[28] = molecular target: Membrane-associated tyrosine- and threonine-specific cdc2-inhibitory kinase (Homo sapiens) (UniProt Q99640); conditions: Compound concentration 1000.0 nM
[29] = molecular target: Serine/threonine-protein kinase SIK1 (Homo sapiens) (UniProt P57059); conditions: Compound concentration 1000.0 nM
[30] = molecular target: Serine/threonine-protein kinase pim-3 (Homo sapiens) (UniProt Q86V86); conditions: Compound concentration 1000.0 nM
[31] = tested on: Receptor-type tyrosine-protein kinase FLT3 (Homo sapiens), P36888 [UNDEFINED MUTATION]; conditions: Compound concentration 1000.0 nM
[32] = molecular target: MAP/microtubule affinity-regulating kinase 3 (Homo sapiens) (UniProt P27448); conditions: Compound concentration 1000.0 nM
[33] = molecular target: Casein kinase II subunit alpha (Homo sapiens) (UniProt P68400); conditions: Compound concentration 1000.0 nM
[34] = molecular target: TGF-beta receptor type-1 (Homo sapiens) (UniProt P36897); conditions: Compound concentration 1000.0 nM
[35] = molecular target: Mitogen-activated protein kinase kinase kinase kinase 2 (Homo sapiens) (UniProt Q12851); conditions: Compound concentration 1000.0 nM
[36] = molecular target: Serine/threonine-protein kinase PRP4 homolog (Homo sapiens) (UniProt Q13523); conditions: Compound concentration 1000.0 nM
[37] = molecular target: Tyrosine-protein kinase receptor UFO (Homo sapiens) (UniProt P30530); conditions: Compound concentration 1000.0 nM
[38] = molecular target: Calcium/calmodulin-dependent protein kinase type 1 (Homo sapiens) (UniProt Q14012); conditions: Compound concentration 1000.0 nM
[39] = molecular target: Receptor tyrosine-protein kinase erbB-4 (Homo sapiens) (UniProt Q15303); conditions: Compound concentration 1000.0 nM
[40] = molecular target: Serine/threonine-protein kinase SIK2 (Homo sapiens) (UniProt Q9H0K1); conditions: Compound concentration 1000.0 nM
[41] = tested on: Phosphatidylinositol 4,5-bisphosphate 3-kinase catalytic subunit alpha isoform (Homo sapiens), P42336 [C420R]; conditions: Compound concentration 1000.0 nM
[42] = molecular target: Calcium/calmodulin-dependent protein kinase type II subunit gamma (Homo sapiens) (UniProt Q13555); conditions: Compound concentration 1000.0 nM
Chain of Calcium/calmodulin-dependent protein kinase type II subunit gamma (Homo sapiens) (Q13555 whole entry): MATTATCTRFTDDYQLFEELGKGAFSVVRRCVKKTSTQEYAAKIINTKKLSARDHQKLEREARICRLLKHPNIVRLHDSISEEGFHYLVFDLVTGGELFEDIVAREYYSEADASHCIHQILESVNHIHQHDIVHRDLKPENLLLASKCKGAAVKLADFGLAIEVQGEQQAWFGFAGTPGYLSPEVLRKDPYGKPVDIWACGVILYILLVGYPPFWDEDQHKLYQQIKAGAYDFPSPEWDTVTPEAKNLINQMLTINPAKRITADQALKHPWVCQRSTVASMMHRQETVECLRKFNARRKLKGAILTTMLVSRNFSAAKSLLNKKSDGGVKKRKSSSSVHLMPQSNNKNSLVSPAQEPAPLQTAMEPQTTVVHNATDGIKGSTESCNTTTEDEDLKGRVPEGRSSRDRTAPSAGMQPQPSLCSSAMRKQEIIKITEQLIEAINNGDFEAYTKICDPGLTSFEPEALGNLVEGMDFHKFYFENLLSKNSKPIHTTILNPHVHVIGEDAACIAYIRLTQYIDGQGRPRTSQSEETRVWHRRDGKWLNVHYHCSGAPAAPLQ

[43] = molecular target: Angiopoietin-1 receptor (Homo sapiens) (UniProt Q02763); conditions: Compound concentration 1000.0 nM
[44] = molecular target: Ephrin type-B receptor 1 (Homo sapiens) (UniProt P54762); conditions: Compound concentration 1000.0 nM
Chain of Ephrin type-B receptor 1 (Homo sapiens) (P54762 whole entry): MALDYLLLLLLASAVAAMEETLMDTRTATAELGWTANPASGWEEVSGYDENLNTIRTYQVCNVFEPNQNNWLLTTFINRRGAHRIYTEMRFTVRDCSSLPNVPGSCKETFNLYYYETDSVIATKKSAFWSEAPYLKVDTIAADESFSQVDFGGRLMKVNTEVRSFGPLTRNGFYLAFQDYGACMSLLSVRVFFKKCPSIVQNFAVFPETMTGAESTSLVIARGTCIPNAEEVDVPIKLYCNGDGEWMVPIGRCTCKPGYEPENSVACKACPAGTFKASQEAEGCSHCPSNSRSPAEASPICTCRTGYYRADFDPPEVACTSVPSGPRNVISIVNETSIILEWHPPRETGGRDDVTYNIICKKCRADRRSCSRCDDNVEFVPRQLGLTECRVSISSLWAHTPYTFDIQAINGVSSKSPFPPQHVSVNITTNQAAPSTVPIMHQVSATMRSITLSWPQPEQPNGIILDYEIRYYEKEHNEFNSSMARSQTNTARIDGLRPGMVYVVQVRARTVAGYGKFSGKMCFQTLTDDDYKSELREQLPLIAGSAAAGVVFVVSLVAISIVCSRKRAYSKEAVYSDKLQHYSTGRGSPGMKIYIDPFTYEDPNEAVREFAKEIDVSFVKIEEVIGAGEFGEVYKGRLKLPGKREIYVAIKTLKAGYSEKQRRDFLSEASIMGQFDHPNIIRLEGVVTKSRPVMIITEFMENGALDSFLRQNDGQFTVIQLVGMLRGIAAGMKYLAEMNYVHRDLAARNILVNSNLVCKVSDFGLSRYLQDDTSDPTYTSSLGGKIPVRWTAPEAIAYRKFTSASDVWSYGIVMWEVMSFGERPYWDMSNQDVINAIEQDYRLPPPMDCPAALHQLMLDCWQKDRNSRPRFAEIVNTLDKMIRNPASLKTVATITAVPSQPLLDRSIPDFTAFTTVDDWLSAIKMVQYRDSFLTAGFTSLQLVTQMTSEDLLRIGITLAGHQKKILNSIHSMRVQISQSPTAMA

[45] = molecular target: Death-associated protein kinase 3 (Homo sapiens) (UniProt O43293); conditions: Compound concentration 1000.0 nM

`CC(=O)c1c(NS(C)(=O)=O)c2cc(-c3ccc(Cl)cc3)c(-c3ccc(Cl)cc3Cl)nc2n(C)c1=O` [MRL-CB1-NC] gave a residual activity [1] of 100%, an inhibition [2] of 39.9% and a residual activity [3] of 96%. It also gave a residual activity [4] of 100%, an inhibition [5] of 78.9% and a residual activity [6] of 89%. It also gave a residual activity [7] of 100%, a residual activity [8] of 100% and an inhibition [9] of 17.1%. For the same compound, the residual activity [10] was 95%, the residual activity [11] was 89% and the residual activity [12] was 100%. For the same compound, the residual activity [13] was 72%, the residual activity [14] was 92% and the residual activity [15] was 100%. The residual activity [16] was 96%, the residual activity [17] was 97% and the residual activity [18] was 100%. The residual activity [19] was 100%, the residual activity [20] was 100% and the residual activity [21] was 100%. It also gave a residual activity [22] of 100%, a residual activity [23] of 88% and a residual activity [24] of 75%. It also gave a residual activity [25] of 100%, a residual activity [26] of 100% and an inhibition [27] of 19.8%. For the same compound, the residual activity [28] was 99%, the residual activity [29] was 100% and the residual activity [30] was 100%. It also gave a residual activity [31] of 87%, a residual activity [32] of 100% and a residual activity [33] of 92%. For the same compound, the residual activity [34] was 100%, the residual activity [35] was 82% and the residual activity [36] was 83%. For the same compound, the residual activity [37] was 100%, the residual activity [38] was 100% and the residual activity [39] was 100%. It also gave a residual activity [40] of 100%, a residual activity [41] of 93% and a residual activity [42] of 100%. It also gave a residual activity [43] of 90%, a residual activity [44] of 100% and a residual activity [45] of 100%.
`CC(=O)Nc1c(C(C)=O)c(=O)n(C)c2nc(-c3ccc(Cl)cc3Cl)c(-c3ccc(Cl)cc3)cc12` [NAPHTHYRIDINONE] was tested, and the residual activity [1] was 100%, the inhibition [2] was 14.3% and the residual activity [3] was 100%. For the same compound, the residual activity [4] was 100%, the inhibition [5] was 3.44% and the residual activity [6] was 100%. The residual activity [7] was 100%, the residual activity [8] was 99% and the inhibition [9] was 22.7%. The residual activity [10] was 100%, the residual activity [11] was 82% and the residual activity [12] was 88%. It also gave a residual activity [13] of 100%, a residual activity [14] of 100% and a residual activity [15] of 100%. The residual activity [16] was 100%, the residual activity [17] was 100% and the residual activity [18] was 100%. It also gave a residual activity [19] of 100%, a residual activity [20] of 100% and a residual activity [21] of 100%. The residual activity [22] was 100%, the residual activity [23] was 100% and the residual activity [24] was 100%. It also gave a residual activity [25] of 100%, a residual activity [26] of 100% and an inhibition [27] of 1.31%. It also gave a residual activity [28] of 100%, a residual activity [29] of 100% and a residual activity [30] of 100%. The residual activity [31] was 100%, the residual activity [32] was 100% and the residual activity [33] was 100%. It also gave a residual activity [34] of 82%, a residual activity [35] of 92% and a residual activity [36] of 100%. For the same compound, the residual activity [37] was 100%, the residual activity [38] was 100% and the residual activity [39] was 91%. It also gave a residual activity [40] of 100%, a residual activity [41] of 88% and a residual activity [42] of 100%. For the same compound, the residual activity [43] was 91%, the residual activity [44] was 100% and the residual activity [45] was 100%.
